Active and inactive are the calls of the source. No cut-off for these calls is given here.
Columns and labels:
Felis catus [1] = test: Duration of hypotensive activity in cat following i.v. administration of 5 mg/kg; type: functional; settings: route intravenous
Felis catus [2] = test: Hypotensive activity in cat following i.v. administration of 5 mg/kg expressed as fall in blood pressure; type: functional; settings: route intravenous
Felis catus [3] = test: Duration of hypotensive activity in cat following i.v. administration of 1 mg/kg; type: functional; settings: route intravenous
Felis catus [4] = test: Hypotensive activity in cat following i.v. administration of 1 mg/kg expressed as fall in blood pressure; type: functional; settings: route intravenous
Felis catus [5] = test: Hypotensive activity in cat following i.v. administration of 5 mg/kg expressed as fall in blood pressure; NA denotes not active; type: functional, organism-based; design: dose 5 mg/kg; settings: at 5 mg/kg
Felis catus [6] = test: Hypotensive activity in cat following i.v. administration of 5 mg/kg expressed as fall in blood pressure; D denotes death; type: functional, organism-based; design: dose 5 mg/kg
Felis catus [7] = test: Hypotensive activity in cat following i.v. administration of 1 mg/kg expressed as fall in blood pressure; NA denotes not active; type: functional, organism-based; design: dose 1 mg/kg; settings: for Max effect: at 1 mg/kg

Compound | Duration (Felis catus [1]) | Decrease in blood pressure (Felis catus [2]) | Max effect (Felis catus [2]) | Duration (Felis catus [3]) | Decrease in blood pressure (Felis catus [4]) | Max effect (Felis catus [4]) | Max effect (Felis catus [5]) | Decrease in blood pressure (Felis catus [6]) | Decrease in blood pressure (Felis catus [7]) | Max effect (Felis catus [7])
CC(C)NCC(O)COc1cccc2ccccc12 (stereo not given) [PROPRANOLOL] | >60 min | 50 mmHg | 41% | 40 min | 46 mmHg | 35% |  |  |  | 
O=C(O)C(CCOc1cccc2ccccc12)CN1CCCCC1 (stereo not given) | 50 min | 40 mmHg | 47% | 16 min | 30 mmHg | 19% |  |  |  | 
c1ccc(N2CCN(COc3ccc4ccccc4c3)CC2)cc1 | 120 min | 60 mmHg | 75% | 16 min | 40 mmHg | 50% |  |  |  | 
CN1CCN(COc2ccc3ccccc3c2)CC1 |  |  |  | 2 min | 18 mmHg | 21% | inactive | Death |  | 
c1ccc2cc(OCN3CCNCC3)ccc2c1 | 2 min | 10 mmHg | 7% |  |  |  |  |  | inactive | inactive
O=C(O)C(CCOc1cccc2ccccc12)CN1CCN(c2ccccc2)CC1 (stereo not given) | 7 min | 50 mmHg | 40% | 2 min | 20 mmHg | 14% |  |  |  | 
O=C(O)C(CCOc1cccc2ccccc12)CN1CCCC1 (stereo not given) | 30 min | 20 mmHg | 17% | 2 min | 10 mmHg | 8% |  |  |  | 
c1ccc2cc(OCN3CCCC3)ccc2c1 | 16 min | 30 mmHg | 19% | 10 min | 12 mmHg | 7% |  |  |  | 
O=C(O)C(CCOc1cccc2ccccc12)CN1CCOCC1 (stereo not given) | 2 min | 16 mmHg | 17% | 2 min | 18 mmHg | 17% |  |  |  | 
O=C(O)C(CCOc1cccc2ccccc12)CN1CCNCC1 (stereo not given) | 7 min | 25 mmHg | 19% | 12 min | 12 mmHg | 7% |  |  |  | 
c1ccc2cc(OCN3CCOCC3)ccc2c1 | >35 min | 50 mmHg | 41% |  |  |  |  |  | inactive | inactive
c1ccc2cc(OCN3CCCCC3)ccc2c1 | 17 min | 44 mmHg | 52% | 2 min | 20 mmHg | 21% |  |  |  | 
CN1CCN(CC(CCOc2cccc3ccccc23)C(=O)O)CC1 (stereo not given) | 4 min | 34 mmHg | 38% | 2 min | 18 mmHg | 17% |  |  |  | 

From ChEMBL document CHEMBL1137974, “1- and 2-substituted naphthalenes: a new class of potential hypotensive agents” (2004)
